“And” between values parts separate entries of the source, which are not always exact repeats. Identical values can stand only once.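 Five compound concentrations were applied to cells in 96-well plates for 48 hours; endpoints were derived by simple linear interpolation of the resulting dose-response curve. GI50 = concentration required for 50% inhibition of growth. Definition used: TGI = concentration required for complete inhibition of growth.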
Key:
Assay in all cases: inhibition of tumour cell growth, NCI panel, 48 h
[1] = system: COLO 205 colon
[2] = system: DU-145 prostate
[3] = system: HCC-2998 colon
[4] = system: HCT-116 colon
[5] = system: HCT-15 colon
[6] = system: HOP-62 NSCLC
[7] = system: K-562 leukemia
[8] = system: M14 melanoma
[9] = system: MDA-MB-231 breast
[10] = system: OVCAR-5 ovarian
[11] = system: OVCAR-8 ovarian
[12] = system: RXF 393 renal
[13] = system: SF-295 CNS
[14] = system: SK-MEL-5 melanoma
[15] = system: SK-OV-3 ovarian
[16] = system: T-47D breast
[17] = system: UO-31 renal
[18] = system: HS 578T breast

| Structure (SMILES) | TGI [1] | TGI [2] | TGI [3] | TGI [4] | TGI [5] | TGI [6] | TGI [7] | TGI [8] | TGI [9] | TGI [10] | TGI [11] | TGI [12] | TGI [13] | TGI [14] | TGI [15] | TGI [16] | TGI [17] | TGI [18] | GI50 [3] |
| --- | --- | --- | --- | --- | --- | --- | --- | --- | --- | --- | --- | --- | --- | --- | --- | --- | --- | --- | --- |
| Cc1c(O)c(OC2OC(CO)C(O)C(O)C2O)cc2c1CC[C@@H]1C2(C)C(=O)C[C@]2(C)[C@@H]([C@@](C)(O)C(O)CCC(C)(C)O)[C@H](O)C[C@@]12C (stereo partly drawn) | > 100 µM | > 100 µM | > 100 µM | > 100 µM | > 100 µM | > 100 µM | > 100 µM | > 100 µM | > 100 µM | > 100 µM | > 100 µM | > 100 µM | > 100 µM | > 100 µM | > 100 µM | > 100 µM | > 100 µM |  |  |
| c1ccc(NC2(c3nnnn3C3CCCCC3)CCNCC2)cc1 | 40.9 µM | > 100 µM | 27.3 µM | 28.5 µM | 51.6 µM | 31.9 µM |  | 35.8 µM | > 100 µM | 43.4 µM | 81.9 µM |  | 34.6 µM | 34.6 µM | 83.4 µM | 52.1 µM | 27.7 µM | 32.2 µM |  |
| O=[N+]([O-])c1ccc2nc(/C=C(\O)c3ccccc3)c(/C=C(\O)c3ccc(Cl)cc3)nc2c1 | > 100 µM | > 100 µM | > 100 µM | > 100 µM | > 100 µM | 88.2 µM | > 100 µM | > 100 µM | > 100 µM | > 100 µM | > 100 µM | 83.9 µM | > 100 µM | > 100 µM | > 100 µM | > 100 µM | > 100 µM |  |  |
| [N-]=[N+]=NC1=C(N=[N+]=[N-])c2cccc3cccc(c23)C1=O | > 100 µM |  | > 100 µM | > 100 µM | > 100 µM | > 100 µM | > 100 µM | > 100 µM | > 100 µM | > 100 µM | > 100 µM | > 100 µM | > 100 µM | > 100 µM | > 100 µM | > 100 µM | > 100 µM | > 100 µM |  |
| CC(=O)/C(=C\n1c(=S)[nH]c2ccc([N+](=O)[O-])cc21)C(=O)Nc1ccccc1C | > 100 µM | > 100 µM | > 100 µM | > 100 µM | > 100 µM | > 100 µM | > 100 µM | > 100 µM | > 100 µM | > 100 µM | > 100 µM | > 100 µM | > 100 µM | > 100 µM | > 100 µM | > 100 µM |  |  |  |
| O=C1C2=Cc3ccccc3CCN2c2ccc([N+](=O)[O-])cc21 | > 100 µM | > 100 µM | > 100 µM | > 100 µM | > 100 µM | > 100 µM | > 100 µM | > 100 µM | > 100 µM | > 100 µM | > 100 µM | > 100 µM | > 100 µM | > 100 µM |  |  | 97.7 µM | > 100 µM |  |
| CCCNc1c(Cl)cc(Cl)c2[nH]c3ccccc3c(=O)c12 | > 100 µM |  | > 100 µM | > 100 µM | > 100 µM | > 100 µM | > 100 µM | > 100 µM | > 100 µM | > 100 µM | > 100 µM |  | > 100 µM | > 100 µM | > 100 µM | > 100 µM | > 100 µM |  |  |
| CC1(C)CC(C2CC(C)(C)CC(C)(C)[C@H]2O)[C@@H](O)C(C)(C)C1 (stereo partly drawn) | > 100 µM |  | > 100 µM | > 100 µM | > 100 µM |  | > 100 µM | > 100 µM |  |  | > 100 µM |  | > 100 µM | > 100 µM | > 100 µM |  | > 100 µM |  |  |
| COC1(CCO)CC=CCC1(CCO)OC (stereo not drawn) | > 100 µM | > 100 µM |  | > 100 µM | > 100 µM | > 100 µM | > 100 µM | > 100 µM |  | > 100 µM | > 100 µM |  | > 100 µM | > 100 µM | > 100 µM | > 100 µM | > 100 µM | > 100 µM |  |
| c1ccc2c(-c3ccnc(-c4c[nH]c5ccccc45)n3)c[nH]c2c1 | > 100 µM | 44.5 µM |  | 15.4 µM | > 100 µM | 28.7 µM | > 100 µM |  |  | > 100 µM | 22.9 µM |  | > 100 µM | 15 µM | > 100 µM | 26.9 µM | > 100 µM | > 100 µM |  |
| COc1cc(O)c2c(=O)cc(C3(OC(C)=O)C=CC(OC4OC(CO)C(O)C(O)C4O)C=C3)oc2c1 (stereo not drawn) | > 100 µM | > 100 µM | > 100 µM | > 100 µM | > 100 µM | > 100 µM | > 100 µM | > 100 µM | > 100 µM | > 100 µM | > 100 µM | > 100 µM | > 100 µM | > 100 µM | > 100 µM | > 100 µM | > 100 µM |  |  |
| CCCN=C1S/C(=C/c2ccc(OC)c(OC)c2)C(=O)N1c1ccccc1 | > 100 µM |  | > 100 µM | > 100 µM | > 100 µM | 15.2 µM | > 100 µM | > 100 µM | 92.6 µM | > 100 µM | > 100 µM |  | 34.9 µM | > 100 µM | 37.8 µM | > 100 µM | 98.6 µM | > 100 µM |  |
| CN(C)c1ccc(C=Nc2ccc(-c3nc4ccccc4o3)cc2)cc1 | > 100 µM | > 100 µM | 47.3 µM | > 100 µM | > 100 µM | > 100 µM | > 100 µM | > 100 µM | > 100 µM | > 100 µM | > 100 µM |  |  | 29.8 µM | > 100 µM | 58.3 µM | > 100 µM | > 100 µM |  |
| COc1cc(-c2c(C(C)=O)c(-c3ccccc3)n(C3OC(COC(C)=O)C(OC(C)=O)C(OC(C)=O)C3OC(C)=O)c(=S)c2C#N)ccc1O (stereo not drawn) | > 100 µM | > 100 µM | > 100 µM and 79.5 µM | > 100 µM | > 100 µM | > 100 µM | > 100 µM | > 100 µM |  | > 100 µM |  | > 100 µM | > 100 µM | > 100 µM |  |  | > 100 µM | > 100 µM | > 100 µM and 29.6 µM |
